Columns and labels:
[1] = test system: TNF-α secretion; experiment: TNF-α secretion in THP-1 macrophages, LPS + Nigericin; format: cell-based; conditions: human THP-1 macrophages, FIG. 5D
Protocol: (§1) This example illustrates a comparative study of CLM-022 and MCC950 in inhibiting NLRP3 inflammasome activity in mouse and human macrophages.
To confirm the inhibitory effect of CLM-022 in human macrophages, THP-1 cells, a human leukemia monocytic cell line, were differentiated into macrophages using phorbol 12-myristate-13-acetate (PMA, 100 ng/ml) treatment for one day. The THP-1 macrophages were then treated with LPS (100 ng/ml) for 3 hours to induce the expression of inflammatory genes. Subsequently, the THP-1 cells were treated with CLM-022 or MCC950 in a dose range of 0-10 μM for 30 minutes. Then, to fully activate NLRP3-dependent inflammasome activity, Nigericin (10 μM) was added to the THP-1 cells for an additional 60 min.

[2] = test system: TNF-α secretion; experiment: Secreted TNF-α in conditioned media of BMDC (ELISA), LPS+ATP or LPS+Nigericin; format: cell-based; conditions: 63-500 nM, FIG. 2C
Protocol: FIG. 2A depicts western blot images showing the relative NLRP3 inflammasome activity of the compounds 22 (CLM-022) and 1 (CLM-001) by detecting the level of cellular ASC complex and the mature form of IL-1β (15 kDa) in a conditioned media of BMDCs treated with LPS (100 ng/ml) for 3 hours and then the compound at 50 nM, 100 nM, and 500 nM concentration for 30 min, followed by ATP or Nigericin. ASC monomer and β-Actin proteins were used as controls. FIG. 2B depict plots of results showing secreted IL-1β levels measured by ELISA using conditioned media of BMDC treated with the compound 22 or compound 1 at 63 nM, 125 nM, 250 nM, and 500 nM, under NLRP3 inflammasome activation induced either by LPS+ATP or LPS+Nigericin. FIG. 2C depict plots of results showing secreted TNF-α levels measured by ELISA using conditioned media of BMDC treated with the compound 22 or compound 1 at 63 nM, 125 nM, 250 nM, and 500 nM, under NLRP3 inflammasome activation induced either by LPS+ATP or LPS+Nigericin.
3. The secreted form of TNF-α, a NLRP3 inflammasome independent cytokine, induced by LPS+ATP or LPS+Nigericin were measured by ELISA assay using the conditioned media of BMDC treated with compound 1 (CLM-1) or compound 22 (CLM-022) at concentrations of 63, 125, 250, 500 nM under NLRP3 inflammasome activation induced either by LPS+ATP or LPS+Nigericin.

[3] = test system: NLRP3 inflammasome; experiment: IL-1β secretion in BMDMs, LPS + Nigericin; format: cell-based, mouse; conditions: FIG. 5A; for inhibition of IL-1β secretion: LPS + Nigericin
Protocol: as §1
(§2) Bone marrow-derived macrophages (BMDMs) were treated with LPS (100 ng/ml) for 3 hours to induce the expression of inflammatory genes, including TNF-α, NLRP3, and pro-IL-1β. Subsequently, the BMDMs were treated with CLM-022 or MCC950 in a dose range of 0-10 μM for 30 minutes. Then, to fully activate NLRP3-dependent inflammasome activity and cytokine secretion, Nigericin (10 μM) was added to the BMDMs for an additional 30 minutes.

[4] = test system: GSDMD and Caspase-1; experiment: GSDMD and Caspase-1 cleavage in THP-1 cells (western blot); format: cell-based; conditions: Homo sapiens; THP-1, western blot; FIG. 7C; read-out: concentration inhibiting GSDMD and Caspase-1 cleavage
Description: (§3) Pyroptosis, a pro-inflammatory form of cell death, is triggered by the activation of NLRP3 inflammasome components (GSDMD and Caspase-1), leading to the release of pro-inflammatory cytokines IL-1β and IL-18, as well as damage-associated molecular patterns (DAMPs). This process elicits a cascade of inflammatory responses, which can persist if dysregulated in affected tissues. Given the significant inhibitory potential of CLM-022 against NLRP3 inflammasome and IL-1β secretion, it was proposed that CLM-022 could effectively enhance cell viability by inhibiting pyroptosis in the context of inflammation and inflammasome activation. This example illustrates a comparative study of the abilities of CLM-022 and MCC950 to protect THP-1 cells from inflammasome-induced pyroptosis.
(§4) After LPS and Nigericin treatment, THP-1 cells were treated with either CLM-022 or MCC950 over a dosage range of 0 μM to 10 μM and cell viability was determined by impermeant live/dead staining dye and flow cytometric analysis. Additionally, NLRP3 inflammasome-induced cytotoxicity was investigated by measuring the level of LDH in the conditioned media after the CLM-022 and MCC950 treatments. Further, Western blotting of samples from the THP-1 cell viability assays was carried out to determine levels of the pyroptosis-mediating molecules, GSDMD and Caspase-1.

[5] = test system: THP-1 cells; experiment: THP-1 cell viability (inflammasome-induced pyroptosis), live/dead staining and flow cytometry; format: cell-based, human; conditions: THP-1, LPS and Nigericin, 0 μM to 10 μM; FIG. 7A
Description: as §3, §4

[6] = test system: TNF-α secretion; experiment: TNF-α secretion in BMDMs, LPS + Nigericin; format: cell-based, mouse; conditions: FIG. 5B
Protocol: as §1, §2

[7] = test system: LPS-induced acute inflammation; experiment: LPS-induced septic shock mouse model, cytokine expression in serum (ELISA) and colonic mucosa (qPCR); format: in vivo
Protocol: FIG. 4A, and FIG. 4B depict results showing that compound 22 (CLM-022) decreased the production of pro-inflammatory cytokines in the LPS-induced septic shock mouse model as described in Example 17. Compound 1 (CLM-001) and compound 22 (CLM-022) (1 mg/kg) injected intraperitoneally 1 hour prior to septic shock induction by administering sublethal dose of LPS (25 mg/kg, i.p.), mice were sacrificed 4 hours post LPS injection, and subjected to measurement of inflammatory cytokine expression. FIG. 4A depicts plot of data showing that the level of TNF-α decreased in the serum of compound 1 and compound 22 treated mice.
This example illustrates a study of the inhibitory function of an exemplary celastrol derivative of the present disclosure (compound 22) against LPS-induced acute inflammation in vivo, we set up LPS-induced septic shock mouse model (Yu et al., 2017) and detected the expression levels of inflammatory cytokines in colon.
Mice (n=3 per group) were administered intraperitoneally (i.p.) with control vehicle, compound 1 (1 mg/kg), or compound 22 (1 mg/kg). After 1 hour, mice were administered by i.p. injection a sublethal dose of LPS (25 mg/kg). Four hours later, the mice were subjected to blood collection and harvesting colonic mucosa by scraping colon. Cytokine expression was measured by conducting ELISA (Cat #900-T54, PeproTech) for TNF-α on blood serum samples and qPCR for the cytokines, IL-1 (TaqMan, Mm00434228), IL-6 (TaqMan, Mm00446190), TNF-α (TaqMan, 00443258), iNOS (TaqMan, 00440502), on colonic mucosa samples.

Compound: CC1=C(O)C(=O)C=C2C1=CC=C1[C@@]2(C)CC[C@@]2(C)[C@@H]3C[C@](C)(N(C)C(=O)C(=O)N(C)C)CC[C@]3(C)CC[C@]12C [Compound 22, N′-[(2R,4aS,6aR,6aS,14aS,14bR)-10-hydroxy-2,4a,6a,6a,9,14a-hexamethyl-11-oxo-1,3,4,5,6,13,14,14b-octahydropicen-2-yl]-N,N,N′-trimethyl-oxamide]
- inhibition of TNF-α secretion [1]: but not TNF-α
- suppression of TNF-α secretion [2]: no significant suppressive effect on TNF-α inflammatory cytokine secretion
- inhibition of IL-1β secretion [3]: outperforms the benchmark inflammasome inhibitor compound, MCC950, in inhibiting IL-1β secretion (but not TNF-α secretion)
- inhibition of IL-1β secretion ([3]; listed as CLM-022): significant inhibition of IL-1β secretion
- IC50 ([3]; Mus musculus, BMDM, LPS (100 ng/ml) + Nigericin (10 μM), 0-10 μM, read-out: IC50 for inhibition of IL-1β secretion (normalized)): 9 nM
- minimal effective concentration [4]: ≤ 0.1 µM
- increase in cell viability [5]: up to 60%
- suppression of TNF-α secretion [6]: neither CLM-022 nor MCC950 suppressed TNF-α secretion
- level of TNF-α in serum ([7]; 1 mg/kg i.p. 1 hour before LPS (25 mg/kg, i.p.), 4 hours post LPS, ELISA, FIG. 4A): decreased
- gene expression of IL-1β, IL-6, TNF-α, and iNOS in the colon ([7]; 1 mg/kg i.p. 1 hour before LPS (25 mg/kg, i.p.), 4 hours post LPS, qPCR, FIG. 4B): markedly inhibited
- inhibition of LPS-induced acute inflammation responses (IL-1, IL-6, TNF-α, iNOS in blood serum and colon mucosa) ([7]; 1 mg/kg i.p., LPS 25 mg/kg i.p., FIGS. 4A and 4B): efficiently suppressed expression of an inflammatory mediator and the inflammatory cytokines including IL-1, IL-6, TNF-α, and INOS in the blood serum and colon mucosa to levels comparable to or lower than the levels observed in the group administered celastrol (Compound 1)
